{"source": "patent EP4653017A1", "about": "“ANTIBODY-DRUG CONJUGATE AND USE THEREOF” (Tyligand Bioscience (Shanghai) Limited, priority 2023, dated 2024)", "key": {"FaDu": {"test_system": "FaDu", "experiment": "Inhibition of tumor cell line proliferation (Table 3), FaDu", "assay_type": "cell-based", "settings": "Human pharyngeal squamous carcinoma cell"}, "SK-MEL5": {"test_system": "SK-MEL5", "experiment": "Inhibition of tumor cell line proliferation (Table 3), SK-MEL5", "assay_type": "cell-based", "settings": "SK-MEL-5; SK-MEL5, Human melanoma cells"}, "THP-1 cells": {"test_system": "THP-1 cells", "experiment": "Activation of IFN-β secretion by THP-1 cells (IFN-beta ELISA)", "assay_type": "cell-based, human"}, "4T1": {"test_system": "4T1", "experiment": "Inhibition of tumor cell line proliferation (Table 3), 4T1", "assay_type": "cell-based", "settings": "4T1, Mouse breast cancer cells"}, "A20": {"test_system": "A20", "experiment": "Inhibition of tumor cell line proliferation (Table 3), A20", "assay_type": "cell-based", "settings": "A20, Mouse B lymphoma cells"}, "[1]": {"test_system": "human gastric cancer NCI-N87 cells", "experiment": "Inhibition of NCI-N87 cell proliferation (CTG assay)", "assay_type": "cell-based", "description": "NCI-N87 cells (Cell Bank of Chinese Academy of Sciences, Cat. No. #TCHu130) were cultured at 37°C, 5% CO2, 95% humidity in RPMI 1640 + 10% FBS (ExCell Bio, Cat. No. #FND500), the cells in logarithmic growth phase were harvested and counted, and cell viability was measured using Countstar automated cell counter based on classical trypan blue staining principle to ensure that the cell viability was above 90%. The cell concentration was adjusted, 135 µL of cell suspension was added into 96 well clear flat bottom black wall plate (Corning, Cat. No. #3904), 2000/well, and the cells was incubated in 96 well plate at 37°C and 5% CO2.\n(§1) The cells in the 96 well plates that had been dosed were incubated at 37°C, 5% CO2 for 5 days before performing CTG assay. the plate was equilibrated to room temperature for 30 min and CTG Reagent (CellTiter-Glo® Luminescent Cell Viability Assay (Promega, Cat. No. #G7573) was melt, 50 µL of CTG Solution was added to each well, and shaked on an orbital shaker for 2 min to lyse the cells. The plate was left at room temperature for 10 min to stabilize the cold light signal and the cold light value was read (EnVision® Multifunctional Plate Reader, PerkinElmer#2105). [formula]\nGraphPad Prism software was used to analyze the data, and Dose-response-inhibition equation was used to fit the data to obtain the dose-response curve from which IC50 value was calculated. […]"}, "CT26 cells": {"test_system": "CT26 cells", "experiment": "CT26 syngeneic mouse bilateral transplanted tumor model", "assay_type": "in vivo, BALB/c mice", "settings": "left (untreated) tumor; 50 µg compound/mouse (2.5 mg/kg) intratumorally into right flank on days 0 and 4; day 13 after treatment", "description": "When tumors grew to an average volume of 100 mm^3, treatments were randomized and started based on tumor size and mouse body weight. The first day of dosing was Day 0. Two doses were administered, 50 µg compound/mouse (i.e., 2.5 mg/kg) was injected intratumorally into the right flank on days 0 and 4, and the same volume of PBS (Hyclone Company, Cat. No. #SH30258.01) was used as a control. The left tumor was left untreated. Control mice were sacrificed after 13 days of dosing and treated mice were sacrificed 21 days later. During the experiment, the tumor volume and body weight were measured three times a week on the left and right sides, and the tumor volume was calculated as V = D × d × d/2 (wherein D represents the long diameter of the tumor and d represents the short diameter of the tumor)."}, "[2]": {"test_system": "lymphoma Raji-hClaudin 18.2 cells", "experiment": "Inhibition of Raji-hClaudin 18.2 cell proliferation (CTG assay)", "assay_type": "cell-based", "description": "Raji-hClaudin 18.2 cells (provided by Elpiscience) were cultured at 37°C, 5% CO2 and 95% humidity in RPMI 1640 + 10% FBS (ExCell Bio, Cat. No. #FND500) + 10 ug/mL Blasticidin (Beyotime, Cat. No. #ST-018), the cells in logarithmic growth phase were harvested and counted, and cell viability was measured using Countstar automated cell counter based on classical trypan blue staining principle to ensure that the cell viability was above 90%. The cell concentration was adjusted, 135 µL of cell suspension was added into 96 well clear flat bottom black wall plate (Corning, Cat. No. #3904), 10000/well, and the cells were incubated in 96 well plate at 37°C and 5% CO2.\nas §1, with “assay. The” for “assay. the”, “read (EnVision ®” for “read (EnVision®”, “[formula] […]” for “[formula]”"}}, "note": "Where a name gives a salt, the structure may show the parent alone.", "data": [{"smiles": "Nc1nc2c(ncn2[C@@H]2O[C@@H]3CO[P@@](=O)(S)O[C@H]4[C@H](F)[C@H](n5cnc6c(N)nc(Cl)nc65)O[C@@H]4CO[P@@](=O)(S)O[C@@H]2[C@@H]3O)c(=O)[nH]1", "note": "[CDN-3, (2',3')-cyclo-(Rp,Rp)-[2'-O-thiophosphodiester-guanosine]-[3'-O-thiophosphodiester-2-chloro-2'-deoxy-2'-fluoro-beta-adenosine]diammonium salt]", "values": [{"measurement": "IC50", "setting": "FaDu", "result": 499, "unit": "nM"}, {"measurement": "IC50", "setting": "SK-MEL5", "result": 505, "unit": "nM"}, {"measurement": "STING agonist activity (in words)", "setting": "THP-1 cells; EC50 stronger than 2',3'-cGAMP, comparable to ADU-S100", "result": "significant STING agonist activity"}, {"measurement": "EC50", "setting": "THP-1 cells; Homo sapiens, THP-1, 24 h, read-out: THP-1 activity", "result": "1000 to 10000", "unit": "nM"}, {"measurement": "IC50", "setting": "4T1", "result": 2270, "unit": "nM"}, {"measurement": "IC50", "setting": "A20", "result": 32, "unit": "nM"}, {"measurement": "inhibitory effects on NCI-N87 cell proliferation (in words)", "setting": "[1]", "result": "strong inhibitory effects"}, {"measurement": "IC50", "setting": "[1]; Homo sapiens, 120 h, NCI-N87, 5 days incubation, top concentration 600 nM", "result": 209, "unit": "nM"}, {"measurement": "growth inhibition rates of left tumors", "setting": "CT26 cells", "result": 91.2, "unit": "%"}, {"measurement": "inhibition effects on Raji-hClaudin 18.2 cell proliferation (in words)", "setting": "[2]", "result": "strong inhibition effects"}, {"measurement": "IC50", "setting": "[2]; 120 h, Raji-hClaudin 18.2, 5 days incubation, top concentration 600 nM", "result": 131, "unit": "nM"}]}]}
